Each block holds one compound with its values, some of them ahead of it.
Experiments:
22Rv1 cells = assay: Proliferation of androgen depleted 22Rv1 cells; type: cell-based; details: absence of androgens
PCAF = PCAF (Homo sapiens, UniProt Q92831); assay: HAT family selectivity, PCAF; details: at 10 µM
Brain exposure = details: in vivo
[1] = tested on: c-Myc expression in 22Rv1 cells; assay: c-Myc expression in androgen depleted 22Rv1 cells; type: cell-based
[2] = tested on: PSA expression in LnCaP-FGC cells; assay: qRT-PCR of DHT-stimulated PSA expression in LnCaP-FGC cells; type: cell-based; details: 7 h and 24 h
GCN5L2 = GCN5L2 (Homo sapiens, UniProt Q92830); assay: HAT family selectivity, GCN5L2; details: at 10 µM
Sequence of GCN5L2 (Q92830 whole entry): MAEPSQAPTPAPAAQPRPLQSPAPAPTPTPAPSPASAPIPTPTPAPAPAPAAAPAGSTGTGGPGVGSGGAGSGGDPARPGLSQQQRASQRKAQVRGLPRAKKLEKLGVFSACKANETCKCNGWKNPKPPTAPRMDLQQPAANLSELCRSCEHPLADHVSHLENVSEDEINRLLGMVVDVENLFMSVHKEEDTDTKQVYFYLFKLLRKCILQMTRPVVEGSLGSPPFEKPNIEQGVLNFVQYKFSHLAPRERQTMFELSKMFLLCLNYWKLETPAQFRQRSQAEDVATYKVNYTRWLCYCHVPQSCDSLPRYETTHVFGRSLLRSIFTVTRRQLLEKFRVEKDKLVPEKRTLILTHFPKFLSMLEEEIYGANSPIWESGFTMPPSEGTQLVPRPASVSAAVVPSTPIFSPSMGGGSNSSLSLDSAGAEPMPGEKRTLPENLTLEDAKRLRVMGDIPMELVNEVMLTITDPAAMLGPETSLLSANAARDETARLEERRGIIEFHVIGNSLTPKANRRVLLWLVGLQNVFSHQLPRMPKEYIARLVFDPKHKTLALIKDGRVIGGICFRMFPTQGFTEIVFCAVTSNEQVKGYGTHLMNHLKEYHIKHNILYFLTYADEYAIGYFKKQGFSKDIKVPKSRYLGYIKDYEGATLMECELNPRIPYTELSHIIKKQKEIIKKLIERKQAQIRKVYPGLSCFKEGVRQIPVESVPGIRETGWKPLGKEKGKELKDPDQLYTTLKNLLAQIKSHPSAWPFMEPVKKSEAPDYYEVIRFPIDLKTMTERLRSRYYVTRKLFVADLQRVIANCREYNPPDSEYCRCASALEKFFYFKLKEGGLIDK

serotonin transporter = serotonin transporter (Homo sapiens, UniProt P31645); assay: Non-epigenetic target panel, serotonin transporter binding; details: at 10 µM
Sequence of serotonin transporter (P31645 whole entry): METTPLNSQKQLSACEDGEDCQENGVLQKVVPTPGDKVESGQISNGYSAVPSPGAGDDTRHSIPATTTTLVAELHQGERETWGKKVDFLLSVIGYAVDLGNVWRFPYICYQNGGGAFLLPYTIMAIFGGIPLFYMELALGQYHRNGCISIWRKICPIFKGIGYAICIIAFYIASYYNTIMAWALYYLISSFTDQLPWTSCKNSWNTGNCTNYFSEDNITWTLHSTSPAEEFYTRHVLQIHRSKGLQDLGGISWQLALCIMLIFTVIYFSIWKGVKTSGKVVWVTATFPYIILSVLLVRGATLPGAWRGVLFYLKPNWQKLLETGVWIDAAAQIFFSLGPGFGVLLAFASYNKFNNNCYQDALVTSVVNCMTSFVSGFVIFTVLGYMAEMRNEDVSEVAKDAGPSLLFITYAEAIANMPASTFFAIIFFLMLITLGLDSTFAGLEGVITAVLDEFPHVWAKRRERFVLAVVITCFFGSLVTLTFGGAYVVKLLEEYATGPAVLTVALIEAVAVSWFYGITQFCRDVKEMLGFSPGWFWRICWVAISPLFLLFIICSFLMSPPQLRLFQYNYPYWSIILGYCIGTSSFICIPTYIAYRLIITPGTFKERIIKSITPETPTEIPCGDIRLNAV

MYST3 = MYST3 (Homo sapiens, UniProt Q92794); assay: HAT family selectivity, MYST3; details: at 10 µM
TIP60 = TIP60 (Homo sapiens, UniProt Q92993); assay: HAT family selectivity, TIP60; details: at 10 µM
MYST4 = MYST4 (Homo sapiens, UniProt Q8WYB5); assay: HAT family selectivity, MYST4; details: at 10 µM
Sequence of MYST4 (Q8WYB5 whole entry, species assumed): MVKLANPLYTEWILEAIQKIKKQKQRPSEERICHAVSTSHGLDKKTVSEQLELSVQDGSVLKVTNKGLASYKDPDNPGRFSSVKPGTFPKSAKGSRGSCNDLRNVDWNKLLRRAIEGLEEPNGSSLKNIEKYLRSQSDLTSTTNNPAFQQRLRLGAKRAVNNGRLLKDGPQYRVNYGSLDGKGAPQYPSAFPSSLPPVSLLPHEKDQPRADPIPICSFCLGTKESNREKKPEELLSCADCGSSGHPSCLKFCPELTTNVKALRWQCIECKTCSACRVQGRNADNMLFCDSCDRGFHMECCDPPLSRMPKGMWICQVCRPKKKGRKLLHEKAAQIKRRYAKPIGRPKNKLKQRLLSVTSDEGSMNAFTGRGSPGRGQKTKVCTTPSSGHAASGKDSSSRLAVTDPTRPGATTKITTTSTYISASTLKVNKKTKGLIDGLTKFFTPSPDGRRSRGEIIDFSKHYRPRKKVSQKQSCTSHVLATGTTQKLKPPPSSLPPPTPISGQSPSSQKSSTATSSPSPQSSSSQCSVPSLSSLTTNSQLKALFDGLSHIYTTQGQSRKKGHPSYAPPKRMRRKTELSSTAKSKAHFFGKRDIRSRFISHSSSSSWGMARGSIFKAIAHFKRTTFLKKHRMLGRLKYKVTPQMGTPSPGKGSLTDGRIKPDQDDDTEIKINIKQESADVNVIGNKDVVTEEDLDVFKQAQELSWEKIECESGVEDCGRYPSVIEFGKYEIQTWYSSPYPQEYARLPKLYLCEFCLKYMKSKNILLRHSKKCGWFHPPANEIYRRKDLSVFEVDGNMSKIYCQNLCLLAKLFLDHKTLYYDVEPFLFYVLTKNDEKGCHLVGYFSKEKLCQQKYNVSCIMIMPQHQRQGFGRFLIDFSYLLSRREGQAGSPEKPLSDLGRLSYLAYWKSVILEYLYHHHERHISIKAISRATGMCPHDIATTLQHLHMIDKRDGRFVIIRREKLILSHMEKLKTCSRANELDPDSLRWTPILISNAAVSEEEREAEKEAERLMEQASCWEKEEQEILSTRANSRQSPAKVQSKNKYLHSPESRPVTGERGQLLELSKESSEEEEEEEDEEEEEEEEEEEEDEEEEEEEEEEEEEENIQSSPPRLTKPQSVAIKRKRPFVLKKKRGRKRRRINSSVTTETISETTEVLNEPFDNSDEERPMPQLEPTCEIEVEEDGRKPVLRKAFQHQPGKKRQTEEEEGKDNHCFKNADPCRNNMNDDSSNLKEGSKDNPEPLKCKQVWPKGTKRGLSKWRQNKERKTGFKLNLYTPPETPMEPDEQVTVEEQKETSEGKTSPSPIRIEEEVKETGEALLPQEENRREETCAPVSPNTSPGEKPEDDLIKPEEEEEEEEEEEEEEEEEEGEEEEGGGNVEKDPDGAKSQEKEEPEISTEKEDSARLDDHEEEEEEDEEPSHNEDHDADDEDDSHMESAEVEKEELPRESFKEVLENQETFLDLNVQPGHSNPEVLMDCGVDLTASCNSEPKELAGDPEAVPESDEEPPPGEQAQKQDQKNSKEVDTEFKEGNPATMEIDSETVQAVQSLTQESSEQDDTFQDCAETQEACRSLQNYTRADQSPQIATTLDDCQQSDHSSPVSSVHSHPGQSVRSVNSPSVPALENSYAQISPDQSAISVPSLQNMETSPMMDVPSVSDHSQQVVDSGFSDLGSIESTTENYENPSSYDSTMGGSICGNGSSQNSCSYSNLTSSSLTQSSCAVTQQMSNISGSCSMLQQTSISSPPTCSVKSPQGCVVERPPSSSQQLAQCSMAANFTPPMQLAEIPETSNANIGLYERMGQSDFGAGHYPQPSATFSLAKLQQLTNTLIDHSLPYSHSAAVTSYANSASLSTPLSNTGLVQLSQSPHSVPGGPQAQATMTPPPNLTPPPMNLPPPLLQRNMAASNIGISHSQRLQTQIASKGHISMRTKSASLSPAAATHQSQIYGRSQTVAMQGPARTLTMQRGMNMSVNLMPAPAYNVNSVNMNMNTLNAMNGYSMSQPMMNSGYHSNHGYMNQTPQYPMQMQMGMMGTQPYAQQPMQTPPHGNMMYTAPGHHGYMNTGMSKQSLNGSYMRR

[3] = tested on: AR+ prostate cancer cell lines; assay: Cell proliferation of prostate cancer cell lines
p300-BHC [4] = biological target: T1, p300-BHC (Homo sapiens, UniProt Q09472); assay: AlphaLISA-based peptide substrate binding assay
T1 sequence (Q09472 1049-1809 limits assumed): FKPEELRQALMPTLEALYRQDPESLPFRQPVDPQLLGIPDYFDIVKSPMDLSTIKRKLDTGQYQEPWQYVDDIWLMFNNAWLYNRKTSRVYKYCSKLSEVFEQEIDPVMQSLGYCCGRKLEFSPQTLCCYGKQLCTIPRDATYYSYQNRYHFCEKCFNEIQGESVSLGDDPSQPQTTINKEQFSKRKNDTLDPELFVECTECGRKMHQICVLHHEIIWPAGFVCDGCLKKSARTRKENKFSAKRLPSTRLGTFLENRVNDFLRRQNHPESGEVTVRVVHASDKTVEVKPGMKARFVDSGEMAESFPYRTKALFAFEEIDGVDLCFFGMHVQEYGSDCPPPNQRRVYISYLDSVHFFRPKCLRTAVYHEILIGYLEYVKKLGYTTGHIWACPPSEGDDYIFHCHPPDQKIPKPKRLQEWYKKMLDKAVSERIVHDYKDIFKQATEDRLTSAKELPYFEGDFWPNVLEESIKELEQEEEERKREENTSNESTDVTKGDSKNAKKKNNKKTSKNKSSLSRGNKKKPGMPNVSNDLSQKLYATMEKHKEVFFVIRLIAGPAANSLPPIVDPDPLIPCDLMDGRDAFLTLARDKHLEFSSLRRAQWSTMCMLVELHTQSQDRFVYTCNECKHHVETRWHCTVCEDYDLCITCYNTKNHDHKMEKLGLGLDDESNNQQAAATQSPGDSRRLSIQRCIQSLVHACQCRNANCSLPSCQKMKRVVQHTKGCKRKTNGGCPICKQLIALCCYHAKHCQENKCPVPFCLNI

HAT1 = HAT1 (Homo sapiens, UniProt O14929); assay: HAT family selectivity, HAT1; details: at 10 µM
[5] = tested on: H3K27Ac and AR occupancy at the PSA enhancer, LnCaP-FGC cells; assay: ChIP at the PSA enhancer in DHT-stimulated LnCaP-FGC cells; type: cell-based; details: DHT 6 h
dopamine transporter = dopamine transporter (Homo sapiens, UniProt Q01959); assay: Non-epigenetic target panel, dopamine transporter binding; details: at 10 µM
Sequence of dopamine transporter (Q01959 whole entry): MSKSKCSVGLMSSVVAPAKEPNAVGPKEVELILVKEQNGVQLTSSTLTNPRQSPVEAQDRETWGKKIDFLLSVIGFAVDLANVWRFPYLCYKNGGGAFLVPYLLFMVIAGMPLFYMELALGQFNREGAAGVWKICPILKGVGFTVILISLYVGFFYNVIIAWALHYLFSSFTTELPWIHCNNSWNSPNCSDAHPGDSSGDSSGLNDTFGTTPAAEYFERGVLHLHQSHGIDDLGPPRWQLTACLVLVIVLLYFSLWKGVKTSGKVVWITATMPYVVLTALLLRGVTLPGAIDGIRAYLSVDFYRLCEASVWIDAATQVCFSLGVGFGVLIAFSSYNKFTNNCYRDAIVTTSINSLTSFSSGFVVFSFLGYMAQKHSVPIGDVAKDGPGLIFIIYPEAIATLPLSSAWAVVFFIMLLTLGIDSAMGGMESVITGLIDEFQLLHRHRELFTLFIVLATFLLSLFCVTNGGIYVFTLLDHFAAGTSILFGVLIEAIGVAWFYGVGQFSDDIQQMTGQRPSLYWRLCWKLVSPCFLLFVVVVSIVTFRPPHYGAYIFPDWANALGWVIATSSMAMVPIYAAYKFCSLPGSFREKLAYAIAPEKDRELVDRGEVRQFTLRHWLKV

H3K9Ac in PC-3 cells = assay: High content microscopy of H3K9Ac in PC-3 cells; details: Homo sapiens, PC-3, 3 h, read-out: EC50, decrease of H3K9Ac
[6] = tested on: PSA expression in 22Rv1 cells; assay: qRT-PCR of PSA expression in androgen depleted 22Rv1 cells; type: cell-based; details: absence of androgens, 7 h and 24 h
LuCaP-77 CR xenograft = assay: LuCaP-77 CR castration resistant prostate cancer xenograft model; type: in vivo, SCID male mice; details: 7 days dosing, 3 h post-dosing
H3K27Ac in PC-3 cells = assay: High content microscopy of H3K27Ac in PC-3 cells; type: cell-based
p300-HAT = p300-HAT (Homo sapiens, UniProt Q09472); assay: Surface plasmon resonance binding to p300-HAT; details: SPR
[7] = biological target: p300-BHC (bromodomain-HAT-C/H3) domain (Homo sapiens, UniProt Q09472); details: toward p300 and CBP
Sequence of p300-BHC (bromodomain-HAT-C/H3) domain (Q09472 1049-1809 limits assumed): as the sequence (Q09472 1049-1809 limits assumed) above

p300-BHC [8] = biological target: T1, p300-BHC; assay: Thermal shift assay with p300-BHC
[9] = tested on: DHT responsive genes in 22Rv1 cells; type: cell-based; details: androgen depleted 22Rv1 cells

Compound: CNC(=O)Nc1ccc2c(c1)CC[C@@]21OC(=O)N(CC(=O)N(Cc2ccc(F)cc2)[C@@H](C)C(F)(F)F)C1=O [Compound A-485]
- inhibition of proliferation (22Rv1 cells): inhibited proliferation
- inhibition of PCAF activity (PCAF): did not inhibit
- brain exposure (Brain exposure): does not achieve significant brain exposure
- c-Myc expression [1]: robustly decreased
- DHT-stimulated PSA expression [2]: attenuated DHT-stimulated PSA expression more potently than the AR antagonist enzalutamide
- inhibition of GCN5L2 activity (GCN5L2): did not inhibit
- binding to serotonin transporter (serotonin transporter): > 90%
- inhibition of MYST3 activity (MYST3): did not inhibit
- inhibition of TIP60 activity (TIP60): did not inhibit
- inhibition of MYST4 activity (MYST4): did not inhibit
- inhibition of proliferation [3]: potent inhibition of proliferation
- competition with peptide substrate binding (p300-BHC [4]): not competitive with the peptide substrate
- inhibition of HAT1 activity (HAT1): did not inhibit
- H3K27Ac at the PSA enhancer [5]: reduced H3K27Ac binding
- binding to dopamine transporter (dopamine transporter): > 90%
- EC50 (H3K9Ac in PC-3 cells): > 10 µM
- PSA expression [6]: decreased PSA expression
- tumor mRNA levels of SLC45A3 and c-Myc (LuCaP-77 CR xenograft): decrease

- fold weaker binding than A-485 (p300-HAT): ~ 1,000 fold
- fold less potent than A-485 [7]: ~ 1000 fold
Compound: CNC(=O)Nc1ccc2c(c1)[C@@]1(CC2)OC(=O)N(CC(=O)N(Cc2ccc(F)cc2)[C@@H](C)C(F)(F)F)C1=O [Compound A-486]
- inhibition of proliferation (22Rv1 cells): inactive
- effect on H3K27Ac, in words (H3K27Ac in PC-3 cells): inactive
- PSA expression [6]: inactive

Compound: CC1=NN(c2ccc(C(=O)O)cc2)C(=O)/C1=C\c1ccc(-c2cc(C)c(C)cc2[N+](=O)[O-])o1 [Compound C646, reference compound]
- effect on H3K27Ac, in words (H3K27Ac in PC-3 cells): only modest inhibition

- increase of thermostability of p300-BHC (p300-BHC [8]): 5.8 °C
Compound: CC(=O)N[C@@H](CCCCNC(=O)CSCCNC(=O)CCNC(=O)[C@H](O)C(C)(C)COP(=O)(O)OP(=O)(O)OC[C@H]1O[C@@H](n2cnc3c(N)ncnc32)[C@H](O)[C@@H]1OP(=O)(O)O)C(N)=O [Lys-CoA]

Compound: CNC(=O)c1ccc(N2C(=S)N(c3ccc(C#N)c(C(F)(F)F)c3)C(=O)C2(C)C)cc1F [enzalutamide, reference compound]
- inhibition of proliferation (22Rv1 cells): inactive
- c-Myc expression [1]: no effect
- AR occupancy at the PSA enhancer [5]: decreased AR occupancy
- H3K27Ac at the PSA enhancer [5]: reduced H3K27Ac binding
- effect on DHT responsive genes, in words [9]: inactive
- PSA expression [6]: inactive

Source: PMC6050590 (Nature, 2017)
